# Source: patent publication US5922683A, “Multicyclic erythromycin derivatives” (Abbott Laboratories, priority 1998, dated 1999)
# Legend:
# [1] = test system: STAPHYLOCOCCUS AUREUS CMX 642A; experiment: In vitro antibacterial activity (agar dilution MIC); type: cell-based; settings: BHI agar, 35-37° C., 20 to 24 hours
# Experimental: (§1) Representative compounds of the present invention were assayed in vitro for antibacterial activity as follows: Twelve petri dishes containing successive aqueous dilutions of the test compound mixed with 10 mL of sterilized Brain Heart Infusion (BHI) agar (Difco 0418-01-5) were prepared. Each plate was inoculated with 1:100 (or 1:10 for slow-growing strains, such as Micrococcus and Streptococcus) dilutions of up to 32 different microorganisms, using a Steers replicator block. The inoculated plates were incubated at 35-37° C. for 20 to 24 hours. In addition, a control plate, using BHI agar containing no test compound, was prepared and incubated at the beginning and end of each test.
# (§2) An additional plate containing a compound having known susceptibility patterns for the organisms being tested and belonging to the same antibiotic class as the test compound was also prepared and incubated as a further control, as well as to provide test-to-test comparability. Erythromycin A was used for this purpose.
# (§3) After incubation, each plate was visually inspected. The minimum inhibitory concentration (MIC) was defined as the lowest concentration of drug yielding no growth, a slight haze, or sparsely isolated colonies on the inoculum spot as compared to the growth control.
# [2] = test system: STAPHYLOCOCCUS AUREUS ATCC 6538P; experiment: as above; type: cell-based; settings: BHI agar, 35-37° C., 20 to 24 hours
# Experimental: as §1, §2, §3
# [3] = test system: STAPHYLOCOCCUS AUREUS A-5278; experiment: as above; type: cell-based; settings: BHI agar, 35-37° C., 20 to 24 hours
# Experimental: as §1, §2, §3
# N. ASTEROIDES ATCC 9970 = experiment: as above; type: cell-based; settings: BHI agar, 35-37° C., 20 to 24 hours
# Experimental: as §1, §2, §3
# [4] = test system: STAPHYLOCOCCUS AUREUS NCTC10649M; experiment: as above; type: cell-based; settings: BHI agar, 35-37° C., 20 to 24 hours
# Experimental: as §1, §2, §3
# ESCHERICHA COLI SS = experiment: as above; type: cell-based; settings: BHI agar, 35-37° C., 20 to 24 hours
# Experimental: as §1, §2, §3
# STR[…] 930 = experiment: as above; type: cell-based; settings: BHI agar, 35-37° C., 20 to 24 hours
# Experimental: as §1, §2, §3
# ESCHERICHIA COLI DC-2 = experiment: as above; type: cell-based; settings: BHI agar, 35-37° C., 20 to 24 hours
# Experimental: as §1, §2, §3
# ESCHERICHIA COLI JUHL = experiment: as above; type: cell-based; settings: BHI agar, 35-37° C., 20 to 24 hours
# Experimental: as §1, §2, §3
# STR[…] PIU 2548 = experiment: as above; type: cell-based; settings: BHI agar, 35-37° C., 20 to 24 hours
# Experimental: as §1, §2, §3
# [5] = test system: STAPHYLOCOCCUS EPIDERMIDIS 3519; experiment: as above; type: cell-based; settings: BHI agar, 35-37° C., 20 to 24 hours
# Experimental: as §1, §2, §3
# [6] = test system: STAPHYLOCOCCUS AUREUS CMX 553; experiment: as above; type: cell-based; settings: BHI agar, 35-37° C., 20 to 24 hours
# Experimental: as §1, §2, §3
# [7] = test system: STAPHYLOCOCCUS AUREUS 1775; experiment: as above; type: cell-based; settings: BHI agar, 35-37° C., 20 to 24 hours
# Experimental: as §1, §2, §3
# [8] = test system: MYCOBACTERIUM SMEGMATIS ATCC 114; experiment: as above; type: cell-based; settings: BHI agar, 35-37° C., 20 to 24 hours
# Experimental: as §1, §2, §3
# CANDIDA ALBICANS CCH 442 = experiment: In vitro antimicrobial activity (agar dilution MIC); type: cell-based; settings: BHI agar, 35-37° C., 20 to 24 hours
# Experimental: as §1, §2, §3
# Gram-negative bacteria = settings: cited from earlier work
# [9] = test system: STREPTOCOCCUS PYOGENES EES61; experiment: In vitro antibacterial activity (agar dilution MIC); type: cell-based; settings: BHI agar, 35-37° C., 20 to 24 hours
# Experimental: as §1, §2, §3
# [10] = test system: STREPTOCOCCUS BOVIS A-5169; experiment: as above; type: cell-based; settings: BHI agar, 35-37° C., 20 to 24 hours
# Experimental: as §1, §2, §3
# [11] = test system: STAPHYLOCOCCUS AUREUS A5177; experiment: as above; type: cell-based; settings: BHI agar, 35-37° C., 20 to 24 hours
# Experimental: as §1, §2, §3
SMILES,minimum inhibitory concentration (MIC) [1],minimum inhibitory concentration (MIC) [2],minimum inhibitory concentration (MIC) [3],minimum inhibitory concentration (MIC) (N. ASTEROIDES ATCC 9970),minimum inhibitory concentration (MIC) [4],minimum inhibitory concentration (MIC) (ESCHERICHA COLI SS),minimum inhibitory concentration (MIC) (STR[…] 930),minimum inhibitory concentration (MIC) (ESCHERICHIA COLI DC-2),minimum inhibitory concentration (MIC) (ESCHERICHIA COLI JUHL),minimum inhibitory concentration (MIC) (STR[…] PIU 2548),minimum inhibitory concentration (MIC) [5],minimum inhibitory concentration (MIC) [6],minimum inhibitory concentration (MIC) [7],minimum inhibitory concentration (MIC) [8],minimum inhibitory concentration (MIC) (CANDIDA ALBICANS CCH 442),activity against Gram-negative bacteria (Gram-negative bacteria),minimum inhibitory concentration (MIC) [9],minimum inhibitory concentration (MIC) [10],minimum inhibitory concentration (MIC) [11]
CC[C@H]1OC(=O)[C@H](C)C(=O)[C@H](C)[C@@H](O[C@@H]2O[C@H](C)C[C@H](N(C)C)[C@H]2O)[C@](C)(OC)C[C@@H](C)C2=Nc3cc(C#N)ccc3N3C(=O)O[C@@]1(C)[C@H]3[C@H]2C [Ex 6],0.39,0.39,> 100,0.39,0.39,3.1,> 100,> 100,> 100,0.39,0.2,0.39,> 100,0.1,> 100,,,,
"CC[C@H]1OC(=O)[C@H](C)[C@@H](O[C@H]2C[C@@](C)(OC)[C@@H](O)[C@H](C)O2)[C@H](C)[C@@H](O[C@@H]2O[C@H](C)C[C@H](N(C)C)[C@H]2O)[C@](C)(O)C[C@@H](C)C(=O)[C@H](C)[C@@H](O)[C@]1(C)O [Ery A, Erythromycin A]",,,,,,,,,,,,,,,,only weak activity,,,
CC[C@H]1OC(=O)[C@H](C)C(=O)[C@H](C)[C@@H](O[C@@H]2O[C@H](C)C[C@H](N(C)C)[C@H]2O)[C@](C)(OC)C[C@@H](C)C2=Nc3cc(OC)ccc3N3C(=O)O[C@@]1(C)[C@H]3[C@H]2C [Ex 5],0.78,0.78,> 100,0.2,0.78,50,> 100,> 100,> 100,0.39,0.78,0.78,> 100,1.56,> 100,,0.02,0.02,0.78
CC[C@H]1OC(=O)[C@H](C)C(=O)[C@H](C)[C@@H](O[C@@H]2O[C@H](C)C[C@H](N(C)C)[C@H]2O)[C@](C)(OC)C[C@@H](C)C2=Nc3cccnc3N3C(=O)O[C@@]1(C)[C@H]3[C@H]2C [Ex 7],0.39,0.39,> 100,0.1,0.39,0.78,> 100,> 100,> 100,0.39,0.39,0.39,> 100,3.1,> 100,,0.05,0.05,0.39
